Test results reported in patent US11541049B2, “Tetrahydroisoquinoline derivatives, preparation process and use thereof” (SICHUAN KELUN-BIOTECH BIOPHARMACEUTICAL CO., LTD., priority 2018, dated 2023).

Tests used:
human plasma = assay: Effect on coagulation in vitro (aPTT and PT), human plasma; settings: final concentration 10NM (so in the source), n = 3
Text: aPTT reagent (purchased from Sysmex);
PT reagent (purchased from Sysmex);
The coagulation pathway includes the extrinsic coagulation pathway and the intrinsic coagulation pathway. The parameter associated with the extrinsic coagulation pathway is prothrombin time, expressed as PT; the parameter associated with the intrinsic coagulation pathway is activated partial thromboplatin time, expressed as aPTT.
After anticoagulation, blood of different species (rabbit, human) was subjected to centrifugation. The upper layer of plasma was collected and divided into several aliquots. The test compounds were added to make the final concentration of test compound to be 10NM. Incubation was conducted at 37° C. after mixed thoroughly. Then the samples were put into a coagulation analyzer (Sysmex CA1500, Sysmex, Japan) for the aPTT and PT assays. Blank plasma (without test compound) was used as a reference, and the ratio values of aPTT and PT of all samples and blank plasmas were analyzed, the results are shown in table 3.

[1] = biological target: human coagulation factor Xa (Homo sapiens (Human), UniProt P00742); assay: Determination of inhibition of factor Xa; type: biochemical
Method: Enzyme: human coagulation factor Xa; manufacturer: R&D System;
Substrate: Mca-RPKPVE-Nval-WRK(Dnp)-NH2; manufacturer: R&D;
The test compounds were dissolved in assay buffer (50 mM Tris, 150 mM NaCl, 10 mM CaCl2, 0.05% Brij35, pH 7.5) at a final concentration of 10 μM and 1 μM. Coagulation factor Xa and test compound were added to the well plate, and incubation was conducted at room temperature for 10 minutes after mixed thoroughly. The substrate (Mca-RPKPVE-Nval-WRK(Dnp)-NH2) was added to initiate the reaction. For reading fluorescence signal value, enzyme kinetic mode was used. The wavelength of excitation light was 320 nm, and the wavelength of emission light was 400 nm. The IC50 was calculated in a manner similar to experimental Example 1.

[2] = Pharmacokinetics study in male rabbits, intravenous injection; type: in vivo
Method: (§1) Pharmacokinetics properties were examined by administering compound of the present disclosure and the reference compound (BMS-962212) to male rabbits through intravenous injection (IV). Blood was collected at various time points after administration. The blood was anticoagulated with EDTA-K2. Plasma samples were obtained by centrifugation, and retained at −80° C. The plasma samples were processed to precipitate the proteins and then analyzed by LC-MS/MS.
(§2) The pharmacokinetic parameters were calculated using WinNonlin 6.3 software by employing a non-compartmental model.

[3] = Pharmacokinetics study in male SD rats, intravenous injection; type: in vivo
Method: as §1, with “characteristics” for “properties”, “SD rats” for “rabbits”, “centrifugation within 30 min after blood collection,” for “centrifugation,”
as §2

[4] = male, SD, rat, plasma, rats, 1 mg/kg

human coagulation factor Xa, sequence (P00742 whole entry, looked up): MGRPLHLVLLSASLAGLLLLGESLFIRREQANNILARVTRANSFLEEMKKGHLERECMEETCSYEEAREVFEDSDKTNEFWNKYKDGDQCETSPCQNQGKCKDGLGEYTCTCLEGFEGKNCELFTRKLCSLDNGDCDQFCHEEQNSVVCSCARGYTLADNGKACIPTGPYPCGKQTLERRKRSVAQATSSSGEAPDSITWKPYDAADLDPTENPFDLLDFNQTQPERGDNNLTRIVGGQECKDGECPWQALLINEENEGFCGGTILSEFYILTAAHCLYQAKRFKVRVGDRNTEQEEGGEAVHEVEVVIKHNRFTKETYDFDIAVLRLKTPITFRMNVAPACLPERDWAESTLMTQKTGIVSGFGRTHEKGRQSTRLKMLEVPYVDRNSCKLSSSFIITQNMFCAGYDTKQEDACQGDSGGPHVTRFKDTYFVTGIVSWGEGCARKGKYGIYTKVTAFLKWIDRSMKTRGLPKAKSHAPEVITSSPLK
human coagulation factor Xa, sequence (P00742 whole entry, looked up): as above

With N[C@@H](CCCCNC(=O)CN1CC=C(c2cccc3c2CCN(C(=O)[C@H]2CC(c4cccc(Cl)c4F)=NO2)[C@@H]3C(=O)Nc2ccc(C(=O)O)cc2)CC1)C(=O)O [Example 5, 4-((S)-5-(1-(2-(((S)-5-amino-5-carboxypentyl)amino)-2-oxoethyl)-1,2,3,6-tetrahydropyridin-4-yl)-2-((R)-3-(3-chloro-2-fluorophenyl)-4,5-dihydroisoxazole-5-carbonyl)-1,2,3,4-tetrahydroisoquinoline-1-carboxamido)benzoic acid] the “Ratio of PT to that of blank plasma” value (human plasma) was 1.03, the “Ratio of aPTT to that of blank plasma” value (human plasma) was 2.95 and the “inhibitory effect on coagulation factor Xa (in words)” value [1] was “no significant inhibitory effect”. The IC50 ([1]; tested at final concentration of 10 μM and 1 μM) was roughly 10 µM, the “AUClast relative to that of the reference compound” value ([2]; 1 mg/kg each) was 12.04 times and the “Cmax relative to that of the reference compound” value ([2]; 1 mg/kg each) was 4.74 times. For the same compound, the “T1/2 relative to that of the reference compound” value ([2]; 1 mg/kg each) was 2.65 times, the AUC(0-inf) ([2]; male, rabbit, plasma, 1 mg/kg) was 5740 ± 2270 ng·h/mL and the AUC(0-t) ([2]; male, rabbit, plasma, 1 mg/kg) was 5730 ± 2270 ng·h/mL. The Cmax ([2]; male, rabbit, plasma, 1 mg/kg) was 6950 ± 1900 ng/mL, the Vd ([2]; male, rabbit, plasma, 1 mg/kg) was 0.3 ± 0.09 L/kg and the clearance ([2]; male, rabbit, plasma, 1 mg/kg) was 3.18 ± 1.06 mL/min/kg. For the same compound, the half-life ([2]; male, rabbit, plasma, 1 mg/kg) was 68.4 ± 15.6 min, the “apparent volume of distribution as share of that of the reference compound” value ([2]; same dosage 1 mg/kg) was 23% and the AUC(0-inf) [3, 4] was 2890 ± 473 ng·h/mL. For the same compound, the AUC(0-t) [3, 4] was 2890 ± 473 ng·h/mL, the Cmax [3, 4] was 2990 ± 629 ng/mL and the clearance [3, 4] was 5.88 ± 1.07 mL/min/kg. For the same compound, the half-life [3, 4] was 46.8 ± 3.6 min, the “AUClast relative to that of the reference compound” value ([3]; rat plasma, 1 mg/kg vs 5 mg/kg reference, dosage normalized) was 3.53 times and the “T1/2 relative to that of the reference compound” value ([3]; rat, 1 mg/kg vs 5 mg/kg reference) was 4.11 times. For the same compound, the “Cmax relative to that of the reference compound” value ([3]; rat, 1 mg/kg vs 5 mg/kg reference, dosage normalized) was 1.35 times.
